Source: DBAASP
Values after ≈ are worked out from the molar mass of the structure shown. Blank lines part the entries; values can stand above or below the compound they belong to.

How the values were obtained:
Assay in all cases: ≥ marks a high value that may be exact or a test limit, other limits are often not marked, values filed in µg/mL are converted to µM
[1] = tested on: Escherichia coli ATCC 25726
[2] = tested on: Candida albicans ATCC 90028
[3] = tested on: Batrachochytrium dendrobatidis JEL-197
[4] = tested on: Staphylococcus aureus ATCC 25923
[5] = tested on: Pseudomonas aeruginosa ATCC 27853
[6] = tested on: Klebsiella pneumoniae KK3 9904
[7] = tested on: Staphylococcus aureus NCTC 8325
[8] = tested on: Escherichia coli ATCC 25922
[9] = tested on: Enterobacter cloacae NHTCC 53001
Streptococcus mutans = tested on: Streptococcus mutans
[10] = tested on: Bacillus subtilis ATCC 6633
[11] = tested on: Staphylococcus aureus ATCC 43300
Escherichia coli ML-35p = tested on: Escherichia coli ML-35p
[12] = tested on: Pseudomonas aeruginosa 08031014
[13] = tested on: Candida albicans ATCC 20032
[14] = tested on: Pseudomonas aeruginosa PAO1
Escherichia coli = tested on: Escherichia coli
[15] = tested on: Staphylococcus aureus P1383
[16] = tested on: Pseudomonas aeruginosa AB93066
[17] = tested on: Staphylococcus aureus P1386
[18] = tested on: Staphylococcus epidermidis P1368
[19] = tested on: Staphylococcus aureus P1374
[20] = tested on: Staphylococcus epidermidis P1389
[21] = tested on: Staphylococcus aureus P969
[22] = tested on: Bacillus thuringiensis AB92037
[23] = tested on: Bacillus subtilis AB91021
[24] = tested on: Staphylococcus epidermidis P1111
Escherichia coli AB94012 = tested on: Escherichia coli AB94012
Staphylococcus sp. = tested on: Staphylococcus sp.
[25] = tested on: Staphylococcus aureus P1369
[26] = tested on: Staphylococcus aureus P1381
[27] = tested on: Staphylococcus aureus AB94004
Bacillus megaterium Bm11 = tested on: Bacillus megaterium Bm11
Escherichia coli D21 = tested on: Escherichia coli D21
[28] = tested on: Staphylococcus aureus Cowan 1
[29] = tested on: Proteus vulgaris OX19 ATCC 6380
[30] = tested on: Staphylococcus aureus JC-1
[31] = tested on: Pseudomonas aeruginosa OT97
[32] = tested on: Shigella flexneri ATCC 203

- MIC (Streptococcus mutans): ≥ 190 µM
Compound: CC[C@H](C)[C@H](NC(=O)[C@H](CCC(=O)O)NC(=O)[C@H](CCCCN)NC(=O)[C@@H](NC(=O)[C@H](CC(N)=O)NC(=O)[C@H](CCC(=O)O)NC(=O)[C@H](C)NC(=O)[C@H](CC(C)C)NC(=O)[C@@H](N)CCCCN)C(C)C)C(=O)N[C@@H](CC(C)C)C(=O)N[C@@H](CCCN=C(N)N)C(=O)O [KLAENVKEILR]

- MIC [10]: ≥ 6000 µM
- MIC (Bacillus megaterium Bm11): ≥ 4800 µM
- MIC (Escherichia coli D21): ≥ 6000 µM
- MIC [28]: ≥ 6000 µM
- MIC [29]: ≥ 6000 µM
- MIC [30]: ≥ 3200 µM
- MIC [31]: ≥ 6000 µM
- MIC [32]: ≥ 4800 µM
Compound: CC[C@H](C)[C@H](NC(=O)[C@H](CCCCN)NC(=O)[C@@H](NC(=O)[C@@H](NC(=O)[C@H](CCC(N)=O)NC(=O)CNC(=O)[C@H](Cc1cnc[nH]1)NC(=O)[C@H](CCC(N)=O)NC(=O)[C@H](CC(N)=O)NC(=O)[C@H](CCC(N)=O)NC(=O)[C@@H](N)C(C)C)C(C)C)C(C)C)C(=O)N[C@@H](Cc1ccccc1)C(=O)N[C@@H](Cc1cnc[nH]1)C(=O)N[C@@H](Cc1cnc[nH]1)C(=O)O [VQNQHGQVVKIFHH]

Second part, the compound before the results:

Compound: CC[C@H](C)[C@H](NC(=O)CN)C(=O)N[C@@H](Cc1ccccc1)C(=O)N[C@@H](CO)C(=O)N[C@@H](C)C(=O)N[C@@H](CC(C)C)C(=O)N[C@@H](C)C(=O)N[C@@H](C)C(=O)NCC(=O)N[C@H](C(=O)N[C@@H](CCCCN)C(=O)N[C@@H](CC(C)C)C(=O)N[C@@H](CC(C)C)C(=O)NCC(=O)N[C@@H](CC(N)=O)C(=O)N[C@H](C(=O)N[C@@H](CC(C)C)C(=O)N[C@@H](Cc1ccccc1)C(=O)N[C@@H](CCCCN)C(=O)N[C@@H](CCSC)C(=O)N[C@@H](C)C(=O)NCC(=O)N[C@@H](CCCCN)C(=O)N[C@@H](C)C(=O)NCC(=O)N[C@@H](C)C(=O)N[C@@H](CCC(=O)O)C(=O)N[C@@H](Cc1cnc[nH]1)C(=O)N[C@@H](CC(C)C)C(=O)N[C@@H](C)C(=O)N[C@H]1CSSC[C@@H](C(=O)O)NC(=O)[C@H](CCC(N)=O)NC(=O)[C@H](CC(N)=O)NC(=O)[C@H]([C@@H](C)O)NC(=O)[C@H](C)NC(=O)[C@H](CCCCN)NC1=O)[C@@H](C)O)C(C)C [GIFSALAAGVKLLGNTLFKMAGKAGAEHLACKATNQC]
- MIC [1]: 25 µM (≈ 92.6 µg/mL)
- MIC [2]: ≥ 50 µM
- MIC [3]: 12.5 µM (≈ 46.3 µg/mL)
- MIC [4]: 12.5 µM (≈ 46.3 µg/mL)

Compound: CC[C@H](C)[C@H](NC(=O)[C@H](Cc1cnc[nH]1)NC(=O)[C@H](CCCCN)NC(=O)CNC(=O)[C@H](C)NC(=O)[C@@H](NC(=O)[C@H](CCCCN)NC(=O)[C@H](CC(C)C)NC(=O)[C@@H](NC(=O)CNC(=O)[C@H](CCCCN)NC(=O)[C@H](CC(C)C)NC(=O)[C@@H](NC(=O)[C@H](CO)NC(=O)[C@H](CCSC)NC(=O)[C@H](CC(C)C)NC(=O)CN)C(C)C)C(C)C)[C@@H](C)O)C(=O)N[C@@H](Cc1ccccc1)C(=O)N[C@@H](CCCCN)C(=O)N[C@@H](CC(N)=O)C(=O)N[C@H](C(=O)NCC(=O)NCC(=O)N[C@@H](CO)C(=O)N[C@@H](CC(C)C)C(=O)N[C@@H](CC(C)C)C(=O)N[C@@H](CC(=O)O)C(=O)N[C@@H](CCC(N)=O)C(=O)N[C@@H](C)C(=O)N[C@@H](CCCCN)C(=O)N[C@H]1CSSC[C@@H](C(=O)O)NC(=O)[C@H](CCC(N)=O)NC(=O)CNC(=O)[C@H]([C@@H](C)O)NC(=O)[C@H]([C@@H](C)CC)NC(=O)[C@H](CCCCN)NC1=O)C(C)C [GLMSVLKGVLKTAGKHIFKNVGGSLLDQAKCKITGQC]
- MIC [5]: 3 µM (≈ 11.5 µg/mL)
- MIC [2]: ≥ 100 µM
- MIC [6]: 6 µM (≈ 23.1 µg/mL)
- MIC [7]: 25 µM (≈ 96.1 µg/mL)
- MIC [8]: 3 µM (≈ 11.5 µg/mL)
- MIC [9]: 6 µM (≈ 23.1 µg/mL)

Compound: CC[C@H](C)[C@H](NC(=O)[C@H](CCCCN)NC(=O)[C@@H](NC(=O)[C@H](Cc1c[nH]c2ccccc12)NC(=O)[C@H](CS)NC(=O)[C@H](CCCNC(=N)N)NC(=O)[C@@H]1CCCN1C(=O)[C@H](CCCNC(=N)N)NC(=O)[C@H](CC(C)C)NC(=O)[C@H](CO)NC(=O)[C@@H](N)CCCCN)[C@@H](C)CC)C(=O)N[C@@H](CCCCN)C(=O)N[C@@H](Cc1ccccc1)C(=O)N[C@@H](CCCNC(=N)N)C(=O)N[C@@H](CS)C(=O)N[C@@H](CCCCN)C(=O)N[C@@H](CO)C(=O)N[C@@H](CC(C)C)C(=O)N[C@@H](CCCCN)C(=O)N[C@@H](Cc1ccccc1)C(=O)O [KSLRPRCWIKIKFRCKSLKF]
- MIC [5]: 3.7 µM (≈ 9.38 µg/mL)
- MIC [10]: ≥ 39.4 µM
- MIC [11]: 3.7 µM (≈ 9.38 µg/mL)
- MIC (Escherichia coli ML-35p): 7.39 µM (≈ 18.8 µg/mL)
- MIC [12]: 14.8 µM (≈ 37.5 µg/mL)
- MIC [13]: 3.7 µM (≈ 9.38 µg/mL)
- MIC [14]: 3.7 µM (≈ 9.38 µg/mL)
- MIC [8]: 7.39 µM (≈ 18.8 µg/mL)
- MIC (Escherichia coli): 20.9 µM (≈ 53 µg/mL)
- MIC [4]: 3.7 µM (≈ 9.38 µg/mL)

Compound: CC[C@H](C)[C@H](NC(=O)[C@H](CC(C)C)NC(=O)[C@H](CO)NC(=O)[C@H](CCCCN)NC(=O)[C@@H](NC(=O)[C@H](CC(C)C)NC(=O)[C@H](CCCN=C(N)N)NC(=O)[C@H](Cc1ccccc1)NC(=O)[C@@H](N)CC(C)C)[C@@H](C)CC)C(=O)N[C@@H](CCCCN)C(=O)N[C@@H](CCCN=C(N)N)C(=O)N[C@@H](CC(C)C)C(=O)N[C@H](C(=O)N[C@@H](CO)C(=O)N[C@@H](C)C(=O)N[C@@H](Cc1ccccc1)C(=O)N[C@@H](CCCCN)C(N)=O)C(C)C [LFRLIKSLIKRLVSAFK]
- MIC [15]: 4.92 µM (≈ 10 µg/mL)
- MIC [16]: ≥ 49.2 µM
- MIC [17]: 12.3 µM (≈ 25 µg/mL)
- MIC [18]: 3.94 µM (≈ 8 µg/mL)
- MIC [19]: 3.94 µM (≈ 8 µg/mL)
- MIC [20]: 3.94 µM (≈ 8 µg/mL)
- MIC [21]: 19.7 µM (≈ 40 µg/mL)
- MIC [22]: 12.3 µM (≈ 25 µg/mL)
- MIC [23]: 12.3 µM (≈ 25 µg/mL)
- MIC [24]: 9.84 µM (≈ 20 µg/mL)
- MIC (Escherichia coli AB94012): 6.15 µM (≈ 12.5 µg/mL)
- MIC (Staphylococcus sp.): 2.46 µM (≈ 5 µg/mL)
- MIC [25]: 3.94 µM (≈ 8 µg/mL)
- MIC [26]: 9.84 µM (≈ 20 µg/mL)
- MIC [27]: 2.46 µM (≈ 5 µg/mL)
